Measured values as given in patent US6924314B2, “Compounds for the treatment of metabolic disorders” (Wellstat Therapeutics Corporation, priority 2001, dated 2005).

Tests used:
[1] = tested on: db/db mice; assay: Antidiabetic effects in db/db mice, four weeks of daily oral dosing; type: in vivo; details: for Glucose / Glucose (% of Control): 150 mg/kg daily oral, four weeks; for blood glucose: after four weeks of daily oral dosing (Compound AW, BH 150 mg/kg; pioglitazone 100 mg/kg)
From the text: Db/db mice have a defect in leptin signaling, leading to hyperphagia, obesity and diabetes. Moreover, unlike ob/ob mice which have relatively robust islets, their insulin-producing pancreatic islet cells undergo failure during chronic hyperglycemia, so that they transition from hyperinsulinemia (associated with peripheral insulin resistance) to hypoinsulinemic diabetes.
Male db/db mice were given daily oral treatments with vehicle (0.75% hydroxypropylmethylcellulose) or antidiabetic compounds as indicated below. Blood samples were obtained via the retro-orbital sinus for serum chemistry analysis, or via the tail vein for glucose measurement with a test strip and glucometer.
The dose of pioglitazone used in this experiment was reported in the literature to be a maximally-effective dose for treatment of db/db mice (Shimaya et al. (2000), Metabolism 49:411-7).

[2] = tested on: Zucker Diabetic Fatty (ZDF) rats; assay: Attenuation of cataractogenesis in Zucker Diabetic Fatty (ZDF) rats; type: in vivo; details: 100 mg/kg daily oral, 10 weeks
From the text: Cataracts are one of the leading causes of progressive vision decline and blindness associated with ageing and diabetes, and the Zucker diabetic fatty (ZDF) model has many similarities with human cataractogenesis, including biochemical changes and oxidative stress in the lens. These rats, however, undergo cataractogenesis typically between 14-16 weeks of age.
Male ZDF rats and their aged-match Zucker lean (ZL) counterparts (fa/+ or +/+) were obtained from Genetic Models, Inc. (Indianapolis, Ind.) aged 12 weeks and acclimatized for 1 week prior to study. […] Treatment cohorts were given a daily oral dose of vehicle and 100 mg/kg of BI or BH for 10 weeks. […] At the end of the treatment period 100 μl of venous blood was collected (usually 10:00 A.M.) in a heparinized tube from the tail vein for serum chemistry analysis (Anilytics, Inc., Gaithersburg, Md.). […] Plasma insulin was measured by an electrochemiluminescent immunoassay, ECL (Origen Analyzer, Igen, Inc., Gaithersburg, Md.). The animals were sacrificed and tissues and/or organs (lens and liver) were extirpated, weighed (wet weight) and processed for biochemical analyses. Malondialdehyde (MDA), a major product of lipid peroxidation was assayed in lenses according to Ohkawa et al (1979), Analytical Biochem 95, 351-358).

[3] = tested on: high fat-fed C57Bl/6J mice; assay: Circulating triglycerides, free fatty acids, insulin and leptin in high fat-fed C57Bl/6J mice; type: in vivo; details: after 2 weeks of drug treatments
From the text: The high fat-fed mouse is a model for the hypertriglyceridemia and high circulating fatty acid levels, and the insulin and leptin resistance that are found in people at risk for and with obesity, diabetes, cardiovascular disease and other disorders. Male C57Bl/6J mice, approximately 8 weeks of age, were randomly assigned into groups of 6 animals. […] Mice were fed a high-fat diet (diet number D12451, containing 45% of calories as fat (Research Diets, New Brunswick, N.J.)) for 6 weeks. […]

[4] = tested on: ob/ob mice; assay: Hyperglycemia, hyperlipidemia, fatty liver disease and weight gain in ob/ob obese diabetic mice, daily oral dosing; type: in vivo, C57BL/6 mice; details: for Free Fatty Acids ± SEM / Glucose ± SEM / Triglycerides ± SEM / ALT (U/L) ± SEM / AST (U/L) ± SEM / SDH (U/L) ± SEM: 4 weeks; for ALT (U/L) ± SEM / AST (U/L) ± SEM / SDH (U/L) ± SEM: serum
From the text: Ob/ob mice have a defect in the gene for leptin, a protein involved in appetite regulation and energy metabolism, and are hyperphagic, obese, and insulin resistant. They develop hyperglycemia and fatty liver.

[5] = tested on: db/db mice; assay: Antidiabetic effects in db/db mice, second experiment, 8 weeks of treatment; type: in vivo; details: 20 mg/kg, 8 weeks of treatment
From the text: Blood samples were obtained via the retro-orbital sinus for serum chemistry analysis, or via the tail vein for glucose measurement with a test strip and glucometer.
Groups consisted of 6-8 mice each.

[6] = tested on: ob/ob obese diabetic mice; assay: Acute hypoglycemic effect in ob/ob obese diabetic mice: Expt 2; type: in vivo; details: single oral dose 250 mg/kg
Method: Male ob/ob mice (50-55 grams; blood glucose ˜300 mg/dL) were divided into groups of five animals each, and given a single oral dose of test drug (250 mg/kg) suspended in 0.5% carboxymethylcellulose vehicle; a control group received oral vehicle alone.
Six hours after oral administration of test drugs or vehicle (control), blood samples were obtained from a tail vein and glucose content was determined with a glucometer.

[7] = tested on: db/db mice; assay: Antidiabetic effects in db/db mice, 2 weeks (Example J); type: in vivo, C57BL/Ksola mice; details: for Glucose / Glucose (% of Control): nonfasting; for Free Fatty Acids ± SEM / Triglycerides ± SEM: serum, daily oral
From the text: db/db mice have a defect in leptin signaling, leading to hyperphagia, obesity and diabetes. Moreover, unlike ob/ob mice on a C57BL/6J background, db/db mice on a C57BL/KS background undergo failure of their insulin-producing pancreatic islet cells, resulting in progression from hyperinsulinemia (associated with peripheral insulin resistance) to hypoinsulinemic diabetes.
A minimum of 7 days was allowed for adaptation after arrival.
Treatment cohorts were given daily oral doses of Vehicle (1% hydroxypropylmethylcellulose), Compounds BI, BS, BT, BU, BV or Fenofibrate for 2 weeks. At the end of the treatment period 100 μl of venous blood was withdrawn in a heparinized capillary tube from the retro-orbital sinus of db/db mice for serum chemistry analysis.

[8] = 3 mg/kg/day, four week treatment period
[9] = 10 mg/kg/day, four week treatment period
[10] = 30 mg/kg/day, four week treatment period

O=C(O)CCC(=O)c1cccc(OCC2CC2)c1 [Compound BH, 4-(3-((Cyclopropyl)-methoxy)phenyl)-4-oxobutyric acid]
Glucose [1]: 229 ± 49 mg/dL | Glucose (% of Control) [1]: 41 ± 9 % of Control | blood glucose [1]: significant reduction in blood glucose | % Protection Left Eye [2]: 33% | % Protection Right Eye [2]: 17% | Cataract Formation Left Eye [2]: 4/6 | Cataract Formation Right Eye [2]: 5/6 | Lenticular MDA ([2]; means ± SEM): 1.9 ± 0.2 nmol/g lens | Size (mm) Left Lens ([2]; means ± SEM): 2.5 ± 0.3 mm | Size (mm) Right Lens ([2]; means ± SEM): 2.1 ± 0.4 mm | Weight (mg) Left Lens ([2]; means ± SEM): 27.0 ± 7.2 mg | Weight (mg) Right Lens ([2]; means ± SEM): 20.0 ± 6.6 mg

CN(CCOc1ccc(CC2SC(=O)NC2=O)cc1)c1ccccn1 (stereo not shown) [Rosiglitazone, rosiglitazone, reference compound]
Free Fatty Acids ([3]; 1 mg/kg oral gavage): 1537 ± 256.3 µmol/L | Triglycerides ([3]; 1 mg/kg oral gavage): 76.6 ± 16.5 mg/dL | Free Fatty Acids ([3]; 3 mg/kg oral gavage): 1833.2 ± 169.8 µmol/L | Triglycerides ([3]; 3 mg/kg oral gavage): 103.2 ± 10.8 mg/dL | Free Fatty Acids ([3]; 10 mg/kg oral gavage): 1810.3 ± 595 µmol/L | Triglycerides ([3]; 10 mg/kg oral gavage): 129.5 ± 48.7 mg/dL | Free Fatty Acids ([3]; 100 mg/kg oral gavage): 1568.5 ± 197 µmol/L | Triglycerides ([3]; 100 mg/kg oral gavage): 88 ± 7.2 mg/dL | Free Fatty Acids ± SEM ([4]; 1 mg/kg/day oral): 2090.75 ± 67.7 µmol/L | Glucose ± SEM ([4]; 1 mg/kg/day oral): 142.75 ± 8.8 mg/dL | Triglycerides ± SEM ([4]; 1 mg/kg/day oral): 109.75 ± 4.4 mg/dL | Mean body weight gain (grams) ([4]; 1 mg/kg/day, four week treatment period): +8.2 grams | Free Fatty Acids ± SEM ([4]; 3 mg/kg/day oral): 2317.6 ± 85.3 µmol/L | Glucose ± SEM ([4]; 3 mg/kg/day oral): 190.2 ± 12.7 mg/dL | Triglycerides ± SEM ([4]; 3 mg/kg/day oral): 107.8 ± 3.8 mg/dL | Mean body weight gain (grams) [4, 8]: +8.5 grams | Free Fatty Acids ± SEM ([4]; 10 mg/kg/day oral): 2606.4 ± 139.2 µmol/L | Glucose ± SEM ([4]; 10 mg/kg/day oral): 188.2 ± 21.4 mg/dL | Triglycerides ± SEM ([4]; 10 mg/kg/day oral): 111.2 ± 7.5 mg/dL | Mean body weight gain (grams) [4, 9]: +11.0 grams | Free Fatty Acids ± SEM ([4]; 30 mg/kg/day oral): 1983.4 ± 66.1 µmol/L | Glucose ± SEM ([4]; 30 mg/kg/day oral): 174.6 ± 11.5 mg/dL | Triglycerides ± SEM ([4]; 30 mg/kg/day oral): 95.2 ± 4.8 mg/dL | Mean body weight gain (grams) [4, 10]: +12.0 grams | Glucose [5]: 343 ± 38 mg/dL | Triglycerides [5]: 89 ± 16 mg/dL

O=C(O)CCC(=O)c1cccc(OCc2c(F)cccc2F)c1 [Compound AW, 4-(3-(2,6-Difluorobenzyloxy)phenyl)-4-oxobutyric acid]
Mean body weight gain (grams) [4, 8]: +7.3 grams | Free Fatty Acids ± SEM ([4]; 10 mg/kg/day oral): 3697.4 ± 357.8 µmol/L | Glucose ± SEM ([4]; 10 mg/kg/day oral): 369.6 ± 62.5 mg/dL | Triglycerides ± SEM ([4]; 10 mg/kg/day oral): 115.6 ± 7.8 mg/dL | Mean body weight gain (grams) [4, 9]: +6.7 grams | Free Fatty Acids ± SEM ([4]; 30 mg/kg/day oral): 2552.2 ± 334.7 µmol/L | Glucose ± SEM ([4]; 30 mg/kg/day oral): 280.2 ± 46.7 mg/dL | Triglycerides ± SEM ([4]; 30 mg/kg/day oral): 96.4 ± 7.3 mg/dL | Mean body weight gain (grams) [4, 10]: +6.4 grams | Free Fatty Acids ± SEM ([4]; 100 mg/kg/day oral): 1476 ± 82.1 µmol/L | Glucose ± SEM ([4]; 100 mg/kg/day oral): 286 ± 47.1 mg/dL | Triglycerides ± SEM ([4]; 100 mg/kg/day oral): 66.2 ± 5.9 mg/dL | Mean body weight gain (grams) ([4]; 100 mg/kg/day, four week treatment period): +3.4 grams | Free Fatty Acids ± SEM ([4]; 150 mg/kg/day oral): 1481 ± 158.8 µmol/L | Glucose ± SEM ([4]; 150 mg/kg/day oral): 188.6 ± 28.8 mg/dL | Triglycerides ± SEM ([4]; 150 mg/kg/day oral): 72.6 ± 5.6 mg/dL | Mean body weight gain (grams) ([4]; 150 mg/kg/day, four week treatment period): +4.6 grams | Free Fatty Acids ± SEM ([4]; 300 mg/kg/day oral): 1452.6 ± 111.1 µmol/L | Glucose ± SEM ([4]; 300 mg/kg/day oral): 128.4 ± 8.8 mg/dL | Triglycerides ± SEM ([4]; 300 mg/kg/day oral): 63.6 ± 3.4 mg/dL | Mean body weight gain (grams) ([4]; 300 mg/kg/day, four week treatment period): −0.7 grams | blood glucose ([4]; daily oral doses, compared with pioglitazone and rosiglitazone): reduction in blood glucose comparable to that achieved with pioglitazone and rosiglitazone | liver fat droplets (liver histology) ([4]; daily treatment for 4 weeks): marked reduction in liver fat droplets | serum triglycerides and fatty acids ([4]; doses of 100 to 300 mg/kg/day, versus comparators at their optimum antihyperglycemic doses): reduced serum triglycerides and fatty acids better than did either rosiglitazone or pioglitazone | serum liver enzymes (ALT, AST, SDH) ([4]; doses ranging from 30 mg/kg/day to 300 mg/kg/day): dose-dependent decrease in serum liver enzymes | weight gain relative to vehicle-treated mice ([4]; four week treatment period): dose-dependent attenuation of weight gain | ALT (U/L) ± SEM ([4]; 10 mg/kg/day oral): 483.8 ± 81.9 U/L | AST (U/L) ± SEM ([4]; 10 mg/kg/day oral): 653.4 ± 104.8 U/L | SDH (U/L) ± SEM ([4]; 10 mg/kg/day oral): 626.8 ± 93.8 U/L | ALT (U/L) ± SEM ([4]; 30 mg/kg/day oral): 320.2 ± 46.2 U/L | AST (U/L) ± SEM ([4]; 30 mg/kg/day oral): 399.6 ± 74.4 U/L | SDH (U/L) ± SEM ([4]; 30 mg/kg/day oral): 333.0 ± 66.9 U/L | ALT (U/L) ± SEM ([4]; 100 mg/kg/day oral): 202.8 ± 38.0 U/L | AST (U/L) ± SEM ([4]; 100 mg/kg/day oral): 143.8 ± 30.4 U/L | SDH (U/L) ± SEM ([4]; 100 mg/kg/day oral): 121.2 ± 14.1 U/L | ALT (U/L) ± SEM ([4]; 150 mg/kg/day oral): 149.2 ± 15.6 U/L | AST (U/L) ± SEM ([4]; 150 mg/kg/day oral): 185.8 ± 26.0 U/L | SDH (U/L) ± SEM ([4]; 150 mg/kg/day oral): 166.2 ± 20.0 U/L | ALT (U/L) ± SEM ([4]; 300 mg/kg/day oral): 188.2 ± 10.3 U/L | AST (U/L) ± SEM ([4]; 300 mg/kg/day oral): 335.4 ± 44.8 U/L | SDH (U/L) ± SEM ([4]; 300 mg/kg/day oral): 207.0 ± 29.3 U/L | Glucose [1]: 313 ± 34 mg/dL | Glucose (% of Control) [1]: 56 ± 6 % of Control | blood glucose [1]: significant reduction in blood glucose | Blood Glucose after 6 hours [6]: 143 ± 15 mg/dL

COc1cc(C(=O)CCC(=O)O)ccc1OCc1c(C)cccc1C [BT, 4-[[4-(2,6-Dimethylbenzyloxy)-3-methoxy]phenyl]-4-oxobutyric acid]
Glucose ([7]; 107 mg/kg daily oral): 684.3 ± 63.6 mg/dL | Glucose (% of Control) ([7]; 107 mg/kg daily oral): 99 ± 9 % of Control | Free Fatty Acids ± SEM ([7]; dose per Table 12: 107 mg/kg): 3897.7 ± 291.3 µM | Triglycerides ± SEM ([7]; dose per Table 12: 107 mg/kg): 211.5 ± 21.5 mg/dL

CC(C)OC(=O)C(C)(C)Oc1ccc(C(=O)c2ccc(Cl)cc2)cc1 [Fenofibrate, reference compound]
Glucose ([7]; 113 mg/kg daily oral): 563.2 ± 49.0 mg/dL | Glucose (% of Control) ([7]; 113 mg/kg daily oral): 81 ± 7 % of Control | Free Fatty Acids ± SEM ([7]; dose per Table 12: 113 mg/kg): 3318.5 ± 208.7 µM | Triglycerides ± SEM ([7]; dose per Table 12: 113 mg/kg): 109.3 ± 9.1 mg/dL
